{"source": "patent US8853274B1", "about": "“Compositions and methods for targeting glioblastomas cells” (Vanderbilt University, priority 2011, dated 2014)", "key": {"[1]": {"tested_on": "T4302 CD133− cells", "assay": "Growth / survival of non-stem GBM cells", "type": "cell-based, human", "conditions": "day 5", "protocol": "(A, B) T4302 CD133+ cells were treated with 100 nM RO4929097 (GSI) and/or 100 nM tipifarnib (FTI) for 4 hours prior to 3 Gy radiation. (A) Cell growth on day 5 and (B) caspase 3/7 activation on day 3 were determined as described in FIG. 4. #: p<0.001 by one-way ANOVA, combo vs. single agents. (C) The effects of GSIs and FTI against growth of T4302 CD133− cells were determined as described in panel A. (D, E) T4302 CD133+ cells were treated with GSI, FTI, or a 1:1 mixture at different concentrations (ranging from 3000 nM to ˜0.5 nM, 1:3 dilution)±3 Gy radiation. Cell viability was determined at 5 days after treatment in comparison to vehicle-treated groups. […] (F) T4302 CD 133+ cells were treated by GSI±FTI with a 2-fold dilution. Neurospheres were countered on day 10, and normalized to the vehicle-treated group.\nTumor cells are enzymatically dissociated from freshly collected subcutaneous xenograft tumors and cultured overnight before sorting. The CD133− and CD133+ fractions are separated either by magnetic sorting using the CD133 Microbead kit (Miltenyi Biotech), or labeled with APC-conjugated CD133 antibody (Miltenyi Biotech) and sorted by flow cytometry. CD133+ cells are maintained in neurobasal media supplemented with 2% B-27, 20 ng/ml EGF, and 20 ng/ml bFGF. […]"}, "[2]": {"tested_on": "CD133+ GBM stem cells", "assay": "Growth inhibition within 5 days, panel of glioblastoma xenograft samples", "type": "cell-based, human", "conditions": "5-day period; in combination with 3 Gy radiation", "protocol": "CD133+ cells were derived from multiple glioblastoma xenograft samples as indicated. The growth inhibitory effects by GSI and/or FTIs were determined as described in FIG. 5.\nTherefore, effective killing of GBM stem cells may delay or even prevent tumor recurrence. […] In combination with radiation, GSIs or FTIs alone reduced cell numbers by ˜75%."}, "[3]": {"tested_on": "intracranial T4302 tumors", "assay": "Orthotopic GBM model, survival and tumor burden", "type": "in vivo, Athymic nude mice", "protocol": "(A, B) T4302 CD133+ cells were treated with 100 nM GSI±FTI for 48 hours and lysed in RIPA buffer. Mice bearing intracranial T4302 tumors were orally treated with 30 mg/kg/day GSI once a day (q.d.)±100 mg/kg/day FTI twice a day (b.i.d.) for 7 days. Brains were resected and homogenized in RIPA buffer. All lysates were blotted with an antibody specific to prelamin A. (B) Additional brains were fixed and resected for IHC staining for cleaved Notch1. (C) T4302 CD133+ cells were infected with lentivirus expressing firefly luciferase and selected with puromycin for two days. Athymic nude mice were intracranially implanted with 5,000 cells, maintained for 10 days, and treated with GSI±FTI for 20 days as described above. In a separated experiment, animals were treated by the same protocol, except they were given 2 doses of 4 Gy X-ray irradiation on day 11 and day 12, 4 hours after drug administration. These mice were on drugs for 30 days. The median survival was calculated by the GraphPad Prism 5 software. (D) Animals in the unirradiated experiment were tracked for their tumor progression by bioluminescence imaging. The Y axis is set in a log scale. (E,F) The survival curves of these two experiments are shown.\nMice were first anesthetized using an isoflurane inhalation system and maintained on the nose cone during the procedure. 5,000 CD 133+ GSC cells suspended in 10 μl PBS were implanted into the right cerebrum with 30 gauge needles. Animals were maintained for 10 days to allow tumor establishment. Before treatment, any mouse showing distress or neurological signs (e.g. lethargy, hemiparesis, ataxia, seizures) would be euthanized. The remaining mice will be randomized to treatment groups just prior to treatment. […]\nMice were weighted and visually inspected daily once treatments begin. Tumor development was monitored by bioluminescence imaging every week. […] The primary readout of the in vivo tests is the median survival calculated by the Kaplan-Meier estimator using the GraphPad Prism5 software. Drug efficacy was also be assessed by tumor sizes estimated by bioluminescence imaging."}, "[4]": {"tested_on": "Akt", "assay": "Immunoblot of Akt phosphorylation in T4302 CD133+ cells", "type": "cell-based, human", "conditions": "200 nM, ±radiation, 2 days", "protocol": "(A) T4302 CD133+ cells were treated with 200 nM RO4929097 (GSI), and irradiated 4 hours later. Cells were cultured for two days and lysed for immunoblotting. (B) T4302 CD133+ cells were treated with 200 nM GSI or FTI±radiation. Cells were lysed 2 days after treatment. (C) T4302 CD133+ cells were treated with 200 nM GSI±FTI for 24 hours, and left under normoxia or in 2% O2 for 16 hours before being lysed for immunoblotting."}, "[5]": {"tested_on": "T4302 CD133+ cells expressing RhoB shRNA", "assay": "Growth, caspase and Akt phosphorylation in RhoB shRNA cells", "type": "cell-based, human", "conditions": "100 nM", "protocol": "(A) T4302 CD133+ cells were infected with lentivirus directing expression of a non-targeting shRNA or two RhoB specific shRNA. Cells were lysed for immunoblotting 3 days after infection. (B, C) Two days after infection, cells were selected with puromycin for two days, and plated in 96-well plates for growth curve assays. Cell growth was measured on days 1, 3 and 5 after plating, and normalized to the corresponding readout on day 1. (D-F) After lentiviral infection and puromycin selection as described above, T4302 CD133+ cells were treated with 100 nM GSI, FTI, ±3 Gy radiation and plated for subsequent experiments. (D) Relative growth on day 5, (E) caspase activation on day 3, and (F) protein levels on day 1 after treatment were determined as described in FIG. 4. *: p<0.001 by Student's t-test in comparison to the corresponding control groups."}}}
{"smiles": "CC(C)(C(=O)NCC(F)(F)C(F)(F)F)C(=O)N[C@@H]1C(=O)Nc2ccccc2-c2ccccc21", "note": "[RO4929097]", "values": [{"measurement": "effect on growth of CD133− non-stem GBM cells", "setting": "[1]", "result": "largely insensitive"}, {"measurement": "growth inhibition / reduction of cell numbers", "setting": "[2]", "result": "~75", "unit": "%"}, {"measurement": "survival benefit, in words", "setting": "[3]; unirradiated, 20 days oral treatment", "result": "did not produce significant benefits"}, {"measurement": "survival benefit, in words", "setting": "[3]; with 2 doses of 4 Gy local X-ray, 30 days oral treatment", "result": "some modest effects"}, {"measurement": "mice free of tumor burden / sustained control of orthotopic GBM", "setting": "[3]; with radiation, ~day 80", "result": "1 out of 8"}, {"measurement": "Akt activity (phosphorylation at serine 473 and threonine 308)", "setting": "[4]", "result": "stronger Akt inhibition in irradiated cells than in unirradiated cells"}, {"measurement": "Akt phosphorylation in RhoB knockdown cells compared with control cells", "setting": "[5]; day 1", "result": "greater reduction of Akt phosphorylation"}, {"measurement": "sensitivity of RhoB shRNA cells (growth day 5, caspase day 3)", "setting": "[5]; ±3 Gy", "result": "highly sensitive"}]}
